{
  "source": "PubChem BioAssay (NCI)",
  "experiment_in_all_cases": "inhibition of tumour cell growth, NCI panel, 48 h",
  "key": {"[1]": {"test_system": "786-0 renal"}, "[2]": {"test_system": "A498 renal"}, "[3]": {"test_system": "A549 NSCLC"}, "[4]": {"test_system": "ACHN renal"}, "[5]": {"test_system": "BT-549 breast"}, "[6]": {"test_system": "CAKI-1 renal"}, "[7]": {"test_system": "CCRF-CEM leukemia"}, "[8]": {"test_system": "COLO 205 colon"}, "[9]": {"test_system": "EKVX NSCLC"}, "[10]": {"test_system": "HCC-2998 colon"}, "[11]": {"test_system": "HCT-116 colon"}, "[12]": {"test_system": "HCT-15 colon"}, "[13]": {"test_system": "HL-60(TB) leukemia"}, "[14]": {"test_system": "HOP-92 NSCLC"}, "[15]": {"test_system": "IGROV1 ovarian"}, "[16]": {"test_system": "K-562 leukemia"}, "[17]": {"test_system": "KM12 colon"}, "[18]": {"test_system": "LOX IMVI melanoma"}, "[19]": {"test_system": "M14 melanoma"}, "[20]": {"test_system": "MALME-3M melanoma"}, "[21]": {"test_system": "MCF7 breast"}, "[22]": {"test_system": "MDA-MB-231 breast"}, "[23]": {"test_system": "MDA-MB-435"}, "[24]": {"test_system": "MDA-N"}, "[25]": {"test_system": "MOLT-4 leukemia"}, "[26]": {"test_system": "NCI-H226 lung"}, "[27]": {"test_system": "NCI-H23 lung"}, "[28]": {"test_system": "NCI-H460 lung"}, "[29]": {"test_system": "NCI-H522 lung"}, "[30]": {"test_system": "NCI/ADR-RES ovarian"}, "[31]": {"test_system": "OVCAR-3 ovarian"}, "[32]": {"test_system": "OVCAR-4 ovarian"}, "[33]": {"test_system": "OVCAR-5 ovarian"}, "[34]": {"test_system": "OVCAR-8 ovarian"}, "[35]": {"test_system": "PC-3 prostate"}, "[36]": {"test_system": "RPMI-8226 leukemia"}, "[37]": {"test_system": "RXF 393 renal"}, "[38]": {"test_system": "SF-268 CNS"}, "[39]": {"test_system": "SF-295 CNS"}, "[40]": {"test_system": "SK-MEL-2 melanoma"}, "[41]": {"test_system": "SK-MEL-28 melanoma"}, "[42]": {"test_system": "SK-MEL-5 melanoma"}, "[43]": {"test_system": "SN12C renal"}, "[44]": {"test_system": "SNB-19 CNS"}, "[45]": {"test_system": "SNB-75 CNS"}, "[46]": {"test_system": "SW-620 colon"}, "[47]": {"test_system": "T-47D breast"}, "[48]": {"test_system": "TK-10 renal"}, "[49]": {"test_system": "U251 CNS"}, "[50]": {"test_system": "UACC-257 melanoma"}, "[51]": {"test_system": "UACC-62 melanoma"}, "[52]": {"test_system": "UO-31 renal"}},
  "note": "Values joined by “and” are separate entries in the source; they are usually repeats but may differ in a detail not shown here. Identical values can stand only once.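 Values below derive from 48-hour exposures of cells grown in 96-well plates, with endpoints linearly interpolated between the two concentrations bracketing the appropriate inhibition level. Here, GI50 denotes the concentration required for 50% inhibition of growth. At the TGI there is no net growth.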",
  "data": [
    {"smiles": "CCCCCCCCCCCC/C=C\\CC[C@@H](O)[C@H](O)CC[C@H](O)[C@@H]1CC[C@@H](CCCCCCCC2=C[C@H](C)OC2=O)O1", "values": [
      {"measurement": "GI50", "setting": "[1]", "value": 15.7, "unit": "µM"},
      {"measurement": "TGI", "setting": "[1]", "value": 40.3, "unit": "µM"},
      {"measurement": "GI50", "setting": "[2]", "value": 16.4, "unit": "µM"},
      {"measurement": "TGI", "setting": "[2]", "value": 36.6, "unit": "µM"},
      {"measurement": "GI50", "setting": "[3]", "value": 3.36, "unit": "µM"},
      {"measurement": "TGI", "setting": "[3]", "value": 23, "unit": "µM"},
      {"measurement": "GI50", "setting": "[4]", "value": 4.35, "unit": "µM"},
      {"measurement": "TGI", "setting": "[4]", "value": "4.71 µM and 26.3 µM"},
      {"measurement": "GI50", "setting": "[5]", "value": 12.8, "unit": "µM"},
      {"measurement": "TGI", "setting": "[6]", "value": 35.7, "unit": "µM"},
      {"measurement": "GI50", "setting": "[7]", "value": 6.82, "unit": "µM"},
      {"measurement": "TGI", "setting": "[7]", "value": "> 100", "unit": "µM"},
      {"measurement": "GI50", "setting": "[8]", "value": 7.21, "unit": "µM"},
      {"measurement": "TGI", "setting": "[8]", "value": "8.36 µM and 22.9 µM"},
      {"measurement": "GI50", "setting": "[9]", "value": 11.6, "unit": "µM"},
      {"measurement": "TGI", "setting": "[9]", "value": 28.9, "unit": "µM"},
      {"measurement": "TGI", "setting": "[10]", "value": 37.1, "unit": "µM"},
      {"measurement": "GI50", "setting": "[11]", "value": 0.231, "unit": "µM"},
      {"measurement": "TGI", "setting": "[11]", "value": 27.1, "unit": "µM"},
      {"measurement": "GI50", "setting": "[12]", "value": 8.86, "unit": "µM"},
      {"measurement": "TGI", "setting": "[12]", "value": 33.8, "unit": "µM"},
      {"measurement": "TGI", "setting": "[13]", "value": 6.56, "unit": "µM"},
      {"measurement": "GI50", "setting": "[14]", "value": 17.4, "unit": "µM"},
      {"measurement": "TGI", "setting": "[14]", "value": "8.69 µM and 55.2 µM"},
      {"measurement": "GI50", "setting": "[15]", "value": 7.09, "unit": "µM"},
      {"measurement": "TGI", "setting": "[15]", "value": 28.1, "unit": "µM"},
      {"measurement": "TGI", "setting": "[16]", "value": 30, "unit": "µM"},
      {"measurement": "GI50", "setting": "[17]", "value": 12.9, "unit": "µM"},
      {"measurement": "TGI", "setting": "[17]", "value": 46, "unit": "µM"},
      {"measurement": "GI50", "setting": "[18]", "value": 3.55, "unit": "µM"},
      {"measurement": "TGI", "setting": "[18]", "value": "4.84 µM and 32.3 µM"},
      {"measurement": "TGI", "setting": "[19]", "value": 46.8, "unit": "µM"},
      {"measurement": "TGI", "setting": "[20]", "value": 31.2, "unit": "µM"},
      {"measurement": "GI50", "setting": "[21]", "value": 4.76, "unit": "µM"},
      {"measurement": "TGI", "setting": "[21]", "value": 34.6, "unit": "µM"},
      {"measurement": "GI50", "setting": "[22]", "value": 12.4, "unit": "µM"},
      {"measurement": "TGI", "setting": "[22]", "value": 35.3, "unit": "µM"},
      {"measurement": "GI50", "setting": "[23]", "value": 11.4, "unit": "µM"},
      {"measurement": "GI50", "setting": "[24]", "value": 6.76, "unit": "µM"},
      {"measurement": "TGI", "setting": "[24]", "value": 23.4, "unit": "µM"},
      {"measurement": "GI50", "setting": "[25]", "value": 1.72, "unit": "µM"},
      {"measurement": "TGI", "setting": "[25]", "value": 4.88, "unit": "µM"},
      {"measurement": "GI50", "setting": "[26]", "value": 13.3, "unit": "µM"},
      {"measurement": "TGI", "setting": "[26]", "value": 34.3, "unit": "µM"},
      {"measurement": "GI50", "setting": "[27]", "value": 2.19, "unit": "µM"},
      {"measurement": "TGI", "setting": "[27]", "value": 29.9, "unit": "µM"},
      {"measurement": "TGI", "setting": "[28]", "value": 26.6, "unit": "µM"},
      {"measurement": "TGI", "setting": "[29]", "value": 25.9, "unit": "µM"},
      {"measurement": "GI50", "setting": "[30]", "value": 7.19, "unit": "µM"},
      {"measurement": "TGI", "setting": "[30]", "value": 27.8, "unit": "µM"},
      {"measurement": "GI50", "setting": "[31]", "value": 0.434, "unit": "µM"},
      {"measurement": "TGI", "setting": "[31]", "value": "6.64 µM and 18.7 µM"},
      {"measurement": "TGI", "setting": "[32]", "value": 26.8, "unit": "µM"},
      {"measurement": "TGI", "setting": "[33]", "value": 38.4, "unit": "µM"},
      {"measurement": "GI50", "setting": "[34]", "value": 8.16, "unit": "µM"},
      {"measurement": "TGI", "setting": "[34]", "value": 38, "unit": "µM"},
      {"measurement": "GI50", "setting": "[35]", "value": 2.22, "unit": "µM"},
      {"measurement": "TGI", "setting": "[35]", "value": 16.5, "unit": "µM"},
      {"measurement": "GI50", "setting": "[36]", "value": 1.43, "unit": "µM"},
      {"measurement": "TGI", "setting": "[36]", "value": 3.87, "unit": "µM"},
      {"measurement": "TGI", "setting": "[37]", "value": 37.8, "unit": "µM"},
      {"measurement": "GI50", "setting": "[38]", "value": 14.2, "unit": "µM"},
      {"measurement": "TGI", "setting": "[38]", "value": 38, "unit": "µM"},
      {"measurement": "GI50", "setting": "[39]", "value": 0.291, "unit": "µM"},
      {"measurement": "TGI", "setting": "[39]", "value": 15.5, "unit": "µM"},
      {"measurement": "GI50", "setting": "[40]", "value": 12.6, "unit": "µM"},
      {"measurement": "TGI", "setting": "[40]", "value": 33.4, "unit": "µM"},
      {"measurement": "GI50", "setting": "[41]", "value": 20.2, "unit": "µM"},
      {"measurement": "TGI", "setting": "[41]", "value": 56.3, "unit": "µM"},
      {"measurement": "GI50", "setting": "[42]", "value": 0.0198, "unit": "µM"},
      {"measurement": "TGI", "setting": "[42]", "value": "4.11 µM and 4.85 µM"},
      {"measurement": "GI50", "setting": "[43]", "value": 13, "unit": "µM"},
      {"measurement": "TGI", "setting": "[43]", "value": 31, "unit": "µM"},
      {"measurement": "GI50", "setting": "[44]", "value": 9.85, "unit": "µM"},
      {"measurement": "TGI", "setting": "[44]", "value": 29.3, "unit": "µM"},
      {"measurement": "GI50", "setting": "[45]", "value": 12.8, "unit": "µM"},
      {"measurement": "TGI", "setting": "[45]", "value": 29.1, "unit": "µM"},
      {"measurement": "GI50", "setting": "[46]", "value": 23.4, "unit": "µM"},
      {"measurement": "TGI", "setting": "[46]", "value": "> 100", "unit": "µM"},
      {"measurement": "GI50", "setting": "[47]", "value": 2.85, "unit": "µM"},
      {"measurement": "TGI", "setting": "[47]", "value": 21.5, "unit": "µM"},
      {"measurement": "GI50", "setting": "[48]", "value": 10, "unit": "µM"},
      {"measurement": "TGI", "setting": "[48]", "value": 28.6, "unit": "µM"},
      {"measurement": "GI50", "setting": "[49]", "value": 13.7, "unit": "µM"},
      {"measurement": "TGI", "setting": "[49]", "value": "> 100", "unit": "µM"},
      {"measurement": "GI50", "setting": "[50]", "value": 1.94, "unit": "µM"},
      {"measurement": "TGI", "setting": "[50]", "value": "4.21 µM and 19.6 µM"},
      {"measurement": "TGI", "setting": "[51]", "value": 6.45, "unit": "µM"},
      {"measurement": "GI50", "setting": "[52]", "value": 12.4, "unit": "µM"},
      {"measurement": "TGI", "setting": "[52]", "value": "9.26 µM and 41.9 µM"}
    ]}
  ]
}
